Data reported in patent US20230075856A1, “CYCLIC SULFAMIDE COMPOUNDS FOR TREATMENT OF HBV” (Assembly Biosciences, Inc., priority 2018, published 2023).

System: HBV viral load production from HepAD38 cells
Test: Viral production from HepAD38 cells: viral load in supernatant by qPCR of the HBV core sequence
Format: cell-based
Details: Hepatitis B virus, HePAD38, 120 h, 5 days incubation, qPCR of supernatant HBV DNA vs DMSO control, read-out: viral load lowering EC50 (Activity)
Summary of the method: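 Viral load was measured by qPCR of the HBV core region in supernatant, quantified against DNA standards and compared with DMSO wells. Cells (50,000/well, tetracycline withdrawn, 2% FBS) received compound from 10 μM final for 5 days; EC50 from four-parameter nonlinear regression.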

SMILES	EC50 [nM]
Cc1cc(CNC(=O)C2CC(C(=O)Nc3ccc(F)c(Cl)c3)N(C)S(=O)(=O)N2)on1 (stereo not shown) [Compound 489]	50 to 100
C[C@H](NC(=O)C1CC(C(=O)Nc2ccc(F)c(Cl)c2)N(C)S(=O)(=O)N1)c1ccc(F)cc1 (stereo partly shown) [Compound 493-S]	< 50
CC(NC(=O)C1CC(C(=O)Nc2ccc(F)c(Cl)c2)N(C)S(=O)(=O)N1)c1ccc(F)cc1 (stereo not shown) [Compound 493]	< 50
CN1C(C(=O)Nc2ccc(F)c(Cl)c2)CC(C(=O)Nc2cn(C)cn2)NS1(=O)=O (stereo not shown) [Compound 494]	50 to 100
Cc1ncc(CNC(=O)C2CC(C(=O)Nc3ccc(F)c(Cl)c3)N(C)S(=O)(=O)N2)s1 (stereo not shown) [Compound 495]	< 50
CN1C(C(=O)Nc2ccc(F)c(Cl)c2)CC(C(=O)NCc2cnc(C(F)(F)F)s2)NS1(=O)=O (stereo not shown) [Compound 498]	100 to 10000
CN1C(C(=O)Nc2ccc(F)c(Cl)c2)CC(C(=O)NCc2ccc(S(N)(=O)=O)s2)NS1(=O)=O (stereo not shown) [Compound 682]	100 to 10000
CN1C(C(=O)Nc2ccc(F)c(Cl)c2)CC(C(=O)NCc2nccs2)NS1(=O)=O (stereo not shown) [Compound 684]	100 to 10000
Cc1noc(CNC(=O)C2CC(C(=O)Nc3ccc(F)c(Cl)c3)N(C)S(=O)(=O)N2)n1 (stereo not shown) [Compound 685]	100 to 10000
Cc1csc(CNC(=O)C2CC(C(=O)Nc3ccc(F)c(Cl)c3)N(C)S(=O)(=O)N2)n1 (stereo not shown) [Compound 686]	50 to 100
Cc1cnc(CNC(=O)C2CC(C(=O)Nc3ccc(F)c(Cl)c3)N(C)S(=O)(=O)N2)s1 (stereo not shown) [Compound 687]	< 50
CN1C(C(=O)Nc2ccc(F)c(Cl)c2)CC(C(=O)NCc2nc3ccccc3s2)NS1(=O)=O (stereo not shown) [Compound 689]	< 50
CN1C(C(=O)Nc2ccc(F)c(Cl)c2)CC(C(=O)NCc2cnc(-c3ccccc3)s2)NS1(=O)=O (stereo not shown) [Compound 691]	< 50
CN1C(C(=O)Nc2ccc(F)c(Cl)c2)CC(C(=O)NCc2cnccn2)NS1(=O)=O (stereo not shown) [Compound 704]	100 to 10000
CN1C(C(=O)Nc2ccc(F)c(Cl)c2)CC(C(=O)NC2CCOC2)NS1(=O)=O (stereo not shown) [Compound 706]	100 to 10000
CN1C(C(=O)Nc2ccc(F)c(Cl)c2)CC(C(=O)Nc2cccnc2)NS1(=O)=O (stereo not shown) [Compound 708]	100 to 10000
CN1C(C(=O)Nc2ccc(F)c(Cl)c2)CC(C(=O)NC2CCN(S(C)(=O)=O)CC2)NS1(=O)=O (stereo not shown) [Compound 710]	100 to 10000
CN1C(C(=O)Nc2ccc(F)c(Cl)c2)CC(C(=O)Nc2ccc(-c3ccccc3)cc2)NS1(=O)=O (stereo not shown) [Compound 711]	100 to 10000
CN1C(C(=O)Nc2ccc(F)c(Cl)c2)CC(C(=O)NCc2ccncc2)NS1(=O)=O (stereo not shown) [Compound 715]	100 to 10000
Cc1cccc(CNC(=O)C2CC(C(=O)Nc3ccc(F)c(Cl)c3)N(C)S(=O)(=O)N2)n1 (stereo not shown) [Compound 716]	< 50
COc1ccc(CNC(=O)C2CC(C(=O)Nc3ccc(F)c(Cl)c3)N(C)S(=O)(=O)N2)cc1 (stereo not shown) [Compound 717, N3-(3-chloro-4-fluoro-phenyl)-N5-[(4-methoxyphenyl)methyl]-2-methyl-1,1-dioxo-1,2,6-thiadiazinane-3,5-dicarboxamide]	< 50
CN1C(C(=O)Nc2ccc(F)c(Cl)c2)CC(C(=O)NCc2ccccc2)NS1(=O)=O (stereo not shown) [Compound 718]	< 50
C[C@@H](NC(=O)C1CC(C(=O)Nc2ccc(F)c(Cl)c2)N(C)S(=O)(=O)N1)c1ccccc1 (stereo partly shown) [Compound 719]	< 50
COc1cccc(CNC(=O)C2CC(C(=O)Nc3ccc(F)c(Cl)c3)N(C)S(=O)(=O)N2)c1 (stereo not shown) [Compound 721]	< 50

SMILES	EC50 [nM]
CN1C(C(=O)Nc2ccc(F)c(Cl)c2)CC(C(=O)NCc2cccc(C(F)(F)F)c2)NS1(=O)=O (stereo not shown) [Compound 724]	50 to 100
CN1C(C(=O)Nc2ccc(F)c(Cl)c2)CC(C(=O)Nc2ccc3cccnc3c2)NS1(=O)=O (stereo not shown) [Compound 725]	50 to 100
CN1C(C(=O)Nc2ccc(F)c(Cl)c2)CC(C(=O)NCCCc2ccccc2)NS1(=O)=O (stereo not shown) [Compound 726]	50 to 100
CN1C(C(=O)Nc2ccc(F)c(Cl)c2)CC(C(=O)NC2CCCCC2)NS1(=O)=O (stereo not shown) [Compound 728]	100 to 10000
CN1C(C(=O)Nc2ccc(F)c(Cl)c2)CC(C(=O)NCc2ccc(Cl)cc2)NS1(=O)=O (stereo not shown) [Compound 729]	< 50
CN1C(C(=O)Nc2ccc(F)c(Cl)c2)CC(C(=O)NCc2cccc(Cl)c2)NS1(=O)=O (stereo not shown) [Compound 730]	< 50
CN1C(C(=O)Nc2ccc(F)c(Cl)c2)CC(C(=O)N[C@H]2CCCc3ccccc32)NS1(=O)=O (stereo partly shown) [Compound 731]	100 to 10000
CN1C(C(=O)Nc2ccc(F)c(Cl)c2)CC(C(=O)NCCc2ccccc2)NS1(=O)=O (stereo not shown) [Compound 732]	100 to 10000
CN1C(C(=O)Nc2ccc(F)c(Cl)c2)CC(C(=O)Nc2ccc3c(c2)OCCO3)NS1(=O)=O (stereo not shown) [Compound 734]	50 to 100
CC(NC(=O)C1CC(C(=O)Nc2ccc(F)c(Cl)c2)N(C)S(=O)(=O)N1)c1ccccn1 (stereo not shown) [Compound 736]	50 to 100
CN1C(C(=O)Nc2ccc(F)c(Cl)c2)CC(C(=O)NC2CCOCC2)NS1(=O)=O (stereo not shown) [Compound 738]	50 to 100
CN1C(C(=O)Nc2ccc(F)c(Cl)c2)CC(C(=O)NCc2ccccn2)NS1(=O)=O (stereo not shown) [Compound 739]	50 to 100
Cc1c(CNC(=O)C2CC(C(=O)Nc3ccc(F)c(Cl)c3)N(C)S(=O)(=O)N2)cnn1C (stereo not shown) [Compound 740]	< 50
C[C@@H](NC(=O)C1CC(C(=O)Nc2ccc(F)c(Cl)c2)N(C)S(=O)(=O)N1)C1CCCCC1 (stereo partly shown) [Compound 741]	50 to 100
CCc1nc(CNC(=O)C2CC(C(=O)Nc3ccc(F)c(Cl)c3)N(C)S(=O)(=O)N2)cs1 (stereo not shown) [Compound 742]	50 to 100
CCn1nccc1CNC(=O)C1CC(C(=O)Nc2ccc(F)c(Cl)c2)N(C)S(=O)(=O)N1 (stereo not shown) [Compound 744]	50 to 100
CCn1ccc(CNC(=O)C2CC(C(=O)Nc3ccc(F)c(Cl)c3)N(C)S(=O)(=O)N2)n1 (stereo not shown) [Compound 745]	50 to 100
C[C@H](NC(=O)C1CC(C(=O)Nc2ccc(F)c(Cl)c2)N(C)S(=O)(=O)N1)c1ccccc1 (stereo partly shown) [Compound 755]	100 to 10000
CC(C)OC(=O)N1CCC(NC(=O)C2CC(C(=O)Nc3ccc(F)c(Cl)c3)N(C)S(=O)(=O)N2)CC1 (stereo not shown) [Compound 766]	< 50
CN1C(C(=O)Nc2ccc(F)c(Cl)c2)CC(C(=O)NC2CCN(C(=O)OC(C)(C)C)CC2)NS1(=O)=O (stereo not shown) [Compound 767]	< 50
CN1C(C(=O)Nc2ccc(F)c(Cl)c2)CC(C(=O)NC2CCN(c3ccccn3)CC2)NS1(=O)=O (stereo not shown) [Compound 769]	< 50
COC(=O)N1CCC(NC(=O)C2CC(C(=O)Nc3ccc(F)c(C#N)c3)N(C)S(=O)(=O)N2)CC1 (stereo not shown) [Compound 770]	50 to 100
CN1C(C(=O)Nc2ccc(F)c(C#N)c2)CC(C(=O)NCc2cnc(C(F)(F)F)s2)NS1(=O)=O (stereo not shown) [Compound 772]	< 50
Cc1cc(CNC(=O)C2CC(C(=O)Nc3ccc(F)c(C#N)c3)N(C)S(=O)(=O)N2)n(C)n1 (stereo not shown) [Compound 773]	100 to 10000

SMILES	EC50 [nM]
C[C@H](NC(=O)C1CC(C(=O)Nc2ccc(F)c(C#N)c2)N(C)S(=O)(=O)N1)c1ccc(F)cc1 (stereo partly shown) [Compound 774]	100 to 10000
C[C@@H](NC(=O)C1CC(C(=O)Nc2ccc(F)c(C#N)c2)N(C)S(=O)(=O)N1)c1ccc(F)cc1 (stereo partly shown) [Compound 776]	100 to 10000
Cc1ccccc1CNC(=O)C1CC(C(=O)Nc2ccc(F)c(Cl)c2)N(C)S(=O)(=O)N1 (stereo not shown) [Compound 817]	< 50
CN1C(C(=O)Nc2ccc(F)c(Cl)c2)CC(C(=O)NCc2ccccc2C(F)(F)F)NS1(=O)=O (stereo not shown) [Compound 818]	< 50
CN1C(C(=O)Nc2ccc(F)c(Cl)c2)CC(C(=O)NCc2ccccc2F)NS1(=O)=O (stereo not shown) [Compound 819]	< 50
CN1C(C(=O)Nc2ccc(F)c(Cl)c2)CC(C(=O)NCc2ccccc2Cl)NS1(=O)=O (stereo not shown) [Compound 820]	< 50
CN1C(C(=O)Nc2ccc(F)c(Cl)c2)CC(C(=O)NCc2ccccc2Br)NS1(=O)=O (stereo not shown) [Compound 821]	< 50
COc1ccccc1CNC(=O)C1CC(C(=O)Nc2ccc(F)c(Cl)c2)N(C)S(=O)(=O)N1 (stereo not shown) [Compound 822]	< 50
CN1C(C(=O)Nc2ccc(F)c(Cl)c2)CC(C(=O)NCc2ccccc2-c2cn(C)cn2)NS1(=O)=O (stereo not shown) [Compound 823]	< 50
CN1C(C(=O)Nc2ccc(F)c(C#N)c2)CC(C(=O)NC2CC2c2ccccc2)NS1(=O)=O (stereo not shown) [Compound 826]	100 to 10000
Cc1csc(CNC(=O)C2CC(C(=O)Nc3ccc(F)c(C#N)c3)N(C)S(=O)(=O)N2)n1 (stereo not shown) [Compound 828]	100 to 10000
Cc1cnc(CNC(=O)C2CC(C(=O)Nc3ccc(F)c(C#N)c3)N(C)S(=O)(=O)N2)s1 (stereo not shown) [Compound 829]	100 to 10000
CN1C(C(=O)Nc2ccc(F)c(C#N)c2)CC(C(=O)NCc2cnc(-c3ccccc3)s2)NS1(=O)=O (stereo not shown) [Compound 830]	50 to 100
Cc1cccc(CNC(=O)C2CC(C(=O)Nc3ccc(F)c(C#N)c3)N(C)S(=O)(=O)N2)n1 (stereo not shown) [Compound 831]	100 to 10000
COc1ccc(CNC(=O)C2CC(C(=O)Nc3ccc(F)c(C#N)c3)N(C)S(=O)(=O)N2)cc1 (stereo not shown) [Compound 832]	50 to 100
CN1C(C(=O)Nc2ccc(F)c(C#N)c2)CC(C(=O)NCc2ccccc2)NS1(=O)=O (stereo not shown) [Compound 833]	100 to 10000
C[C@@H](NC(=O)C1CC(C(=O)Nc2ccc(F)c(C#N)c2)N(C)S(=O)(=O)N1)c1ccccc1 (stereo partly shown) [Compound 834]	100 to 10000
COc1cccc(CNC(=O)C2CC(C(=O)Nc3ccc(F)c(C#N)c3)N(C)S(=O)(=O)N2)c1 (stereo not shown) [Compound 835]	50 to 100
CN1C(C(=O)Nc2ccc(F)c(C#N)c2)CC(C(=O)NCc2ccc(Cl)cc2)NS1(=O)=O (stereo not shown) [Compound 836]	50 to 100
CN1C(C(=O)Nc2ccc(F)c(C#N)c2)CC(C(=O)NCc2cccc(Cl)c2)NS1(=O)=O (stereo not shown) [Compound 837]	< 50
Cc1c(CNC(=O)C2CC(C(=O)Nc3ccc(F)c(C#N)c3)N(C)S(=O)(=O)N2)cnn1C (stereo not shown) [Compound 838]	100 to 10000
CC(=O)N1CCC(NC(=O)C2CC(C(=O)Nc3ccc(F)c(Cl)c3)N(C)S(=O)(=O)N2)CC1 (stereo not shown) [Compound 851]	100 to 10000
